# Experimental data: PMC8273887 (Journal of Medicinal Chemistry, 2021)
# Entries after “also recorded” stand apart in the source; their conditions may differ. Bridge positions count the residues as written; N and C are the ends. Ends that are not written are not given here.
# Key:
# CXCR4 = molecular target: T1, CXCR4 (Homo sapiens, UniProt P61073); test: Inositol 1 phosphate (IP1) accumulation assay (HTRF) in COS-7 cells transfected with CXCR4; format: cell-based; conditions: COS-7 transiently co-transfected with CXCR4-eYFP and chimeric GαΔ6qi4myr; stimulation 1 h, 37 °C, triplicate; HTRF; n ≥ 2 independent experiments; read-out: EC50 (CXCR4 activation, IP1 accumulation)
# T1 construct: expressed in transfected cells; host or cells: COS-7 (African green monkey), transient co-transfection with GαΔ6qi4myr
# Text: CXCR4 is a member of the G protein-coupled receptor (GPCR) family[58] and proposed as a target receptor for TFF3 to mediate wound healing.[30],[39] We therefore pharmacologically characterized TFF3(C^57Acm) and TFF3 homodimer at CXCR4. We used a chimeric Gαiq protein to switch the pathway to the Gαq signaling, which leads to the activation of the phospholipase and allows measurement of CXCR4 activation through the production of inositol 1 phosphate (IP1).[61]−[63] We measured IP1 accumulation upon stimulation with TFF3(C^57Acm) and TFF3 homodimer in fibroblast-like COS-7 cells transiently transfected with CXCR4.[58] This is a competitive immunoassay, based on the HTRF technology, where native IP1 produced by cells compete with labeled IP1 (acceptor) for binding to anti-IP1-cryptate (donor). The specific signal (i.e., Förster resonance energy transfer, FRET) is inversely proportional to the concentration of IP1 in the sample. The calculation of the fluorescence ratio eliminates possible medium interferences.[64]
# COS-7 cells (fibroblast-like cells from African green monkey) were transiently co-transfected with the CXCR4 C-terminally fused to eYFP in pVitro2 vector and the untagged chimeric G protein GαΔ6qi4myr in pcDNA3.1 plasmid using Metafectene Pro according to manufacturer’s protocol. The cells were cultured in DMEM with higher glucose and supplemented with 10% FCS without any antibiotics at 37 °C and 5% CO2 in 95% humidity. Cisbio IP-One Gq assay kit was used according to previous description with minor modifications to measure activity.[80] Briefly, a standard curve was prepared in HBSS (Hanks’ balanced salt solution) with 20 mM LiCl to determine the linear range of the assay and 10 000 cells/well were cultured overnight in a 384-well flat white plate (Greiner Bio-one GmbH, Frickenhausen, Germany). TFF3 and its homodimer as well as CXCL12 were diluted in HBSS containing 20 mM LiCl. Stimulation was carried out for 1 h in triplicate at 37 °C. Subsequently, 3 μL of IP1-d2 and 3 μL of Ab-cryptate in lysis buffer were added to the wells and incubated on a tumbler for 60 min at 25 °C. Fluorescence was then measured at 620 and 665 nm and the HTRF (homogeneous time-resolved fluorescence) ratio (665/620 nm) was calculated. Data analysis was performed with Prism (version 7, GraphPad, La Jolla). Tested compounds were normalized to CXCL12 wild type, with the highest HTRF ratio set to 0% and the lowest HTRF ratio set to 100% response. […] The final concentration range of 10^–12 to 10^–5 M to CXCL12 and 1 or 10 μM to TFF3(C^57Acm) and TFF3 homodimer was achieved by adding the compounds from a threefold concentrated stock solution.
# pepsin = test: simulated gastric fluid (SGF, containing pepsin, pH 1.3); conditions: porcine, 37 °C, up to 24 h
# porcine pancreatin = test: simulated intestinal fluid (SIF, containing pancreatic enzymes, pH 6.8); conditions: 37 °C, up to 24 h
# trypsin = test: trypsin
# SH-SY5Y cells = test: Antiapoptotic assay (etoposide-induced cell death, caspase-3/7 activity); format: cell-based, human; conditions: etoposide 10 μM and peptide 10 μM added at the same time, caspase-3/7 activity after 6 h, n ≥ 3 independent experiments
# Procedure: (A) Cell death was induced with etoposide (10 μM), and cells were treated with 10 μM of TFF3. Etoposide and TFF3 were added at the same time. Caspase-3/7 activity was measured after 6 h. […] Z-DEVD-FMK (50 μM; caspase-3 inhibitor) was used as the positive control. E: etoposide, E + C3I: etoposide + caspase-3 inhibitor. One-way analysis of variance (ANOVA) followed by Dunnett correction was performed to assess differences between treated cells and etoposide only. *p < 0.05, **p < 0.01.
# SH-SY5Y cells were seeded (13–15 × 10^3 cells/well) in 96-well microplates in DMEM with 10% (v/v) fetal calf serum (FCS; Gibco), 2 mM L-glutamine, and 100 units/mL penicillin/streptomycin. The media was replaced with low riboflavin, complete Ham’s F12 medium with 10% (v/v) fetal calf serum, 2 mM L-glutamine, and 100 units/mL penicillin/streptomycin before the live-cell imaging. Cells were treated with the etoposide or the caspase-3 inhibitor or TFF3(C^57Acm) or TFF3 homodimer in the presence of IncuCyte caspase-3/7 green apoptosis reagent. Data were acquired using an IncuCyte ZOOM instrument with standard scan type setting (4 images per well) every 2 h for 48 h.
# [1] = Stability in simulated gastric fluid (SGF); format: in vitro ADME, porcine
# Procedure: (§1) We exposed TFF3(C^57Acm) and TFF3 homodimer to simulated gastric fluid (SGF, containing pepsin, pH 1.3) and simulated intestinal fluid (SIF, containing pancreatic enzymes, pH 6.8), and monitored the mixture over 24 h by analytical RP-HPLC and MS. The N- and C-termini of TFF3 and its homodimer were readily truncated in both SGF and SIF (Figure 4A,B). In SGF, TFF3 was cleaved at Leu^6/Ser^7 followed by cleavage at Glu^54/Ala^55 (t1/2 < 5 min). In SIF, TFF3 was cleaved first at Thr^58/Phe^59 followed by cleavage at Leu^6/Ser^7, Glu^56/Cys^57, and Ala^55/Glu^56 (t1/2 < 5 min). TFF3 homodimer, in both SGF (t1/2 ∼ 40 min) and SIF (t1/2 < 5 min), was first broken down to monomeric TFF3 through simultaneous cleavage at Leu^6 and Glu^54 or Ala^55, eventually leading to the same metabolites as TFF3 (Figure 4B).
# (§2) Simulated gastric fluid (SGF) was prepared by dissolving 20 mg of NaCl and 8 mg of pepsin in 70 μL of concentrated HCl (32%), and the volume was diluted to 10 mL with Milli-Q water (pH 1.3).[76],[77] Simulated intestinal fluid (SIF) was prepared by dissolving 68 mg of KH2PO4 in 500 μL of Milli-Q water followed by the addition of 800 μL of 0.2 M NaOH and 100 mg of porcine pancreatin, and the volume was adjusted to 10 mL with Milli-Q water (pH 6.8).[76],[77] Peptide stock solution (1 mM; 15 μL) was added to SGF (285 μL) or SIF (285 μL) and incubated at 37 °C. Samples (30 μL) from SGF and SIF were taken at 0, 5, 15, and 30 min and 1, 2, 4, 8, and 24 h timepoints and subsequently quenched with 30 μL of 0.2 M Na2CO3 (SGF) or 30 μL of 5% aqueous TFA (SIF). The samples were analyzed by analytical RP-HPLC (30 μL) and/or LC-MS (20 μL). The amount of peptide remaining was determined by measuring the peak area and expressing it as a % of the peak area at time 0. Peptide half-life (t1/2) was determined from the peptide degradation profiles using an exponential one-phase decay fit in Prism (version 7, GraphPad, La Jolla). LC-MS analysis was performed in a Q-Star Pulsar mass spectrometer (SCIEX, Ontario, Canada), and the raw data spectra were processed using the peptide reconstruction tool in the BioAnalyst software to identify the mass of the metabolites. The stability of the disulfide bonds was assessed through incubation of the peptides (10 μM) with 10 equiv of reduced glutathione (GSH; 100 μM) in sodium phosphate (50 mM) buffer at pH 7.2. Samples were taken at timepoints 0, 4, 8, and 24 h, quenched by adding 10% TFA, and analyzed by analytical RP-HPLC using an analytical C3 column (Agilent Zorbax SB-C3, 5 μm, 2.1 mm × 250 mm, 300 Å).
# [2] = Stability in simulated intestinal fluid (SIF); format: in vitro ADME; conditions: pig, simulated intestinal fluid (SIF) with porcine pancreatin
# Procedure: as §1, §2
# T1 sequence (P61073 whole entry): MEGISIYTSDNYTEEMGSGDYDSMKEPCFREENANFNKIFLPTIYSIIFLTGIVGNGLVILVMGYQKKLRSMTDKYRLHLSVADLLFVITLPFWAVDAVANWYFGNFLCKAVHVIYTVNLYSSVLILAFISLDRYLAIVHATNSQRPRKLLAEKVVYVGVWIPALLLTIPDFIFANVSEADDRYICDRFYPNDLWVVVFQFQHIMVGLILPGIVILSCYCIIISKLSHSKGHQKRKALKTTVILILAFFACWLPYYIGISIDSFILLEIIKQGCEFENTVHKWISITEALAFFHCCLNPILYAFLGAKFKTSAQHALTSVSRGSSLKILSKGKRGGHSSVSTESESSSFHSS
substance,measurement,setting,value
CXCL12: natural CXCR4 ligand; recombinant human CXCL12 from E. coli with additional N-terminal methionine; positive control [reference compound],EC50,CXCR4,5.9 nM
EEYVGLSANQCAVPAKDRVDCGYPHVTPKECNNRGCCFDSRIPGVPWCFKPLQEAEC(Acm)TF,cleaved bond,pepsin,"Leu6-Ser7, first_seen; also recorded: Glu54-Ala55"
same,cleaved bond,porcine pancreatin,"Thr58-Phe59, first_seen; also recorded: Leu6-Ser7; also recorded: Glu56-Cys57; also recorded: Ala55-Glu56"
QCAVPAKDRVDCGYPHVTPKECNNRGCCFDSRIPGVPWCFK,not cleaved,pepsin,stable in SGF for 24 h
same,cleaved bond,trypsin,"cleavages at Lys^16, Arg^18, and Arg^41; also recorded: Arg41-Ile42"
same,fragment found,trypsin,Glu^30-Arg^34; also recorded: Ile^42-Lys^50
SANQCAVPAKDRVDCGYPHVTPKECNNRGCCFDSRIPGVPWCFKPLQE,not cleaved,pepsin,stable in SGF with a half-life over 24 h
"SANQCAVPAKDRVDCGYPHVTPKECNNRGCCFDSRIPGVPWCFKPLQE-NH2 (disulfide 5-31, 15-30, 25-42) [TFF3_7-54]",reduction of etoposide-induced cell death (caspase-3/7 active objects),SH-SY5Y cells,"active in the anti-apoptosis assay, equivalent to TFF3 and TFF3 homodimer"
same,stability in SGF over 24 h (in words),"[1]; SGF with pepsin, pH 1.3, 37 °C, 24 h, RP-HPLC and MS",remained stable
same,half-life at 50 μM,"[1]; simulated gastric fluid (SGF) with pepsin, pH 1.3, 15 μL of 1 mM stock in 285 μL, 37 °C, monitored over 24 h, RP-HPLC/LC-MS, read-out: half-life in SGF",> 24 h
same,half-life at 50 μM,"[2]; pH 6.8, 15 μL of 1 mM stock in 285 μL, 37 °C, monitored over 24 h, RP-HPLC/LC-MS, read-out: half-life in SIF",> 24 h
same,"metabolised at 24 h, 50 μM","[2]; pH 6.8, 37 °C, 24 h, RP-HPLC/MS, read-out: degradation in SIF within 24 h",~25%
S^7ANQCAVPAKDRVDCGYPHVTPKECNNRGCCFDSRIPGVPWCFKPLQEA^55,not cleaved,porcine pancreatin,remained stable even after 24 h
